Test results: ChEMBL document CHEMBL1127935, “Synthesis and antiproliferative activity of 15-oxoprostaglandins: Contribution of the -chain enone group to cytotoxicity” (Bioorg Med Chem Lett, 1994)
pIC50: −log10 of the molar value.

System: K562
Assay: In vitro antiproliferative activity was measured on human leukemia K562 cells
Format: functional, cell-based

Row | SMILES | pIC50
1 | CCCCCC(=O)/C=C/[C@H]1[C@H](O)CC(=O)[C@@H]1C/C=C\CCCC(=O)OC | 4.55
2 | CCCCCC(=O)/C=C/[C@]1(O)CC(=O)C=C1C/C=C\CCCC(=O)OC | 5.18
3 | CCCCCC(=O)/C=C/[C@]1(O)C[C@@H](O)C=C1C/C=C\CCCC(=O)OC | 4.70
4 | CCCCCC(=O)/C=C/C1[C@H](O)C[C@H](O)[C@@H]1C/C=C\CCCC(=O)O (stereo not given in full) | 3.44
5 | CCCCC[C@H](O)/C=C/[C@H]1[C@H](O)CC(=O)[C@@H]1C/C=C\CCCC(=O)O [DINOPROSTONE] | 4.20
6 | CCCCCC(=O)/C=C/C1[C@H](O)C[C@H](O)[C@@H]1C/C=C\CCCC(=O)OC (stereo not given in full) | 4.21
7 | CCCCC[C@H](O)/C=C/[C@@H]1[C@@H](C/C=C\CCCC(=O)O)[C@@H](O)C[C@H]1O [DINOPROST] | < 3.15

Continued, values first:

Row | pIC50 | SMILES
8 | 3.70 | CCCCC[C@H](O)/C=C/[C@]1(O)C[C@@H](O)C=C1C/C=C\CCCC(=O)OC
9 | 4.00 | CCCCC[C@H](O)/C=C/C1[C@H](O)C[C@H](O)[C@@H]1C/C=C\CCCC(=O)OC (stereo not given in full)
10 | 4.39 | CCCCC[C@H](O)/C=C/C1[C@H](O)CC(=O)[C@@H]1C/C=C\CCCC(=O)OC (stereo not given in full)
